We go through three molecules from article PMC3180999 (Journal of medicinal chemistry, 2010).

Data set [1] relates to AR. The following applies: cited from earlier work.
Data set [2] relates to LNCaP (hormone sensitive) cells. In words: PSA expression readout in normal LNCaP. Type of data set: cell-based. The following applies: 10% FBS, harvest on day 6 and day 10, Scheme 20.
For data set [3], the system named is LNCaP/AR cells. Briefly: PSA expression readout in LNCaP/AR. Type of data set: cell-based. The following applies: Schemes 18 and 19.
Data set [4] concerns LNCaP/AR cells. Briefly: LNCaP/AR xenograft in castrate SCID mice. Type of data set: in vivo.
Data set [5] can be described thus: pharmacokinetics: serum concentration, steady state concentration. The following applies: mouse, in vivo.
The mark [6] stands for this setting: oral, 0.1, 1 and 10 mg/kg once a day, Figure 7.

As to `CC1(C)C(=O)N(c2ccc(C#N)c(C(F)(F)F)c2)C(=S)N1CCCCO` [RU59063], in data set [1], the “affinity for the AR” value is listed as “nearly equal to that of the well known steroidal agonist R1881”.

As to `CNC(=O)c1ccc(N2C(=S)N(c3ccc(C#N)c(C(F)(F)F)c3)C(=O)C23CCC3)cc1F` [compound 91, N-Methyl-4-[7-(4-cyano-3-trifluoromethylphenyl)-8-oxo-6-thioxo-5,7-diazaspiro-[3.4]oct-5-yl]-2-fluorobenzamide], in data set [2], the “effect on hormone sensitive LNCaP cells (PSA)” value is listed as “good activity”. Further, the “activity in the hormone refractory LNCaP/AR assay” value in data set [3] is reported as “excellent activity”. The “activity on xenografts over an extended period” value in data set [4] (10 mg/kg/day, 31 days, Figure 8) is recorded as “retains activity”. For the same molecule, the “effect on LNCaP/AR (HR) tumor size” value in data set [4] (10 and 50 mg/kg once a day, vs bicalutamide at the same dose, Figure 6) is given as “very active”. Further, in data set [4] (setting [6]), the “dose required in dose response of tumor volume change” value is “at least 1 mg/kg/day” and the “optimal dose in dose response of tumor volume change” value stood at 10 mg/kg/day. Also, the “pharmacokinetic (PK) profile” value in data set [5] is “superb pharmacokinetic (PK) profile”.

`C[C@]1(O)CC[C@H]2[C@@H]3CCC4=CC(=O)CCC4=C3C=C[C@@]21C` [R1881]: the “affinity for the AR” value in data set [1] was “slightly higher than that of the natural ligand dihydrotestosterone”.
